Common to all, as to assay: NCI tumour cell line growth inhibition, 48 h
Test [1] deals with KM12 colon.
For test [2], the system named is HS 578T breast.
Test [3] deals with 786-0 renal.
For test [4], the system named is HCT-116 colon.
Test [5] deals with K-562 leukemia.
Test [6] deals with SK-MEL-2 melanoma.
The test system of test [7] is A498 renal.
Test [8] relates to SNB-75 CNS.
In test [9] the test system is EKVX NSCLC.
Test [10] relates to OVCAR-5 ovarian.

We go through nine compounds from PubChem BioAssay (NCI).

Each structure is given as a SMILES string.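 These data come from cells grown in 96-well plates and exposed to compound for 48 hours at five concentrations. At the GI50, growth is halved. Definition used: TGI = concentration required for complete inhibition of growth.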

Take `Nc1ncnc2nn(C3OC(CO)C(O)C3O)nc12` (stereo not given): the TGI in [1] was over 100 µM; in [2], over 100 µM; in test [3], over 100 µM; in [4], 39.1 µM; in [5], over 100 µM; in [6], 17.5 µM. For the same compound, the TGI in test [7] was over 59.6 µM; in test [8] it was 54.1 µM; in test [9] it was over 100 µM; in [10], over 95.3 µM.
Consider `CC1(C)N=C(N)N=C(N)N1c1ccc(Cl)c(Cl)c1`, for which the GI50 in [1] was 648 nM; in test [2] it was over 27300 nM; in [3] it was 72 nM; in test [4] it was 54.9 nM; in test [5], 63.6 nM; in test [6], over 100 µM. For the same compound, the GI50 was 11200 nM in test [7], 18700 nM in [8], 1970 nM in test [9] and 252 nM in [10]. Further, the TGI in [1], in [2], in test [3], in test [4], in test [5] and in test [6] was over 100 µM in each case. Besides, the TGI in [7] was over 100 µM; in test [8], over 81.3 µM; in test [9], over 100 µM; in test [10] it was over 100 µM.
Consider `CNC(=O)c1cc2c(Oc3ccc(NC(=S)NC(=O)Cc4ccccc4)cc3F)ccnc2cc1OC`, for which the GI50 in test [1] was 3910 nM; in [2], 1290 nM; in test [3], 5750 nM; in test [4], 59500 nM; in [5], 502 nM; in test [6] it was over 29.9 µM. Moreover, the GI50 in [7] was 1100 nM; in test [8] it was 183 nM; in test [9], over 100000 nM; in test [10] it was over 36100 nM. In addition, the TGI is over 100 µM in test [1]; 8.05 µM in [2]; over 100 µM in test [3]; over 100 µM in test [4]; over 100 µM in [5]; over 100 µM in test [6]. Further, the TGI in test [7] was 4.35 µM; in [8] it was 4.68 µM; in test [9] it was over 100 µM; in test [10], over 100 µM.
Regarding `C#C/C=C/CC1OC(C(Br)CC)CC(Br)C2CC1O2` (stereo not given), the TGI was over 100 µM in test [1]; over 100 µM in test [2]; 24.8 µM in [3]; over 100 µM in test [4]; over 100 µM in test [5]; over 100 µM in test [6]. Besides, the TGI in test [7], in test [8], in [9] and in test [10] was over 100 µM throughout.
Regarding `Cn1c2ccccc2c2nnc(NNCc3ccccn3)nc21`, the GI50 in [1] is 478 nM; in test [2] it was 1440 nM; in test [3], 327 nM; in test [4], 409 nM; in test [5], 363 nM; in test [6] it was 5.17 µM. For the same compound, the GI50 in test [7] was 415 nM; in test [8] it was 1160 nM; in test [9], 406 nM; in test [10], 1010 nM. Further, the TGI in [1] came to 14.2 µM; in test [2], 16.7 µM; in test [3], 4.51 µM; in [4], 12.2 µM; in [5] it was 13.7 µM; in test [6] it was 33 µM. In addition, the TGI in test [7] came to 12.3 µM; in test [8] it was 14.1 µM; in [9], 15.2 µM; in test [10], 15.3 µM.
Take `O=Nc1c(O)c2ccccc2c2ccccc12`: the GI50 in test [1] was 1760 nM; in [2] it was 2000 nM; in test [3], 2840 nM; in test [4], 371 nM; in test [5], 505 nM; in [6], 1.8 µM. In addition, the GI50 is 1600 nM in test [7], 1510 nM in test [8], 1700 nM in test [9] and 1940 nM in [10]. Further, the TGI in test [1] is 3.34 µM; in test [2], 5.65 µM; in test [3] it was 7.04 µM; in test [4], 1.33 µM; in test [5] it was over 100 µM; in test [6], 3.99 µM. The TGI is 3.07 µM in test [7], 2.92 µM in test [8], 3.32 µM in test [9] and 4.53 µM in test [10].
With `CCc1ncnc2cc(OCC3CO3)c(OC)cc12` (stereo not given), the TGI in test [1] is 49.3 µM; in test [2] it was 42 µM; in [3], 20.7 µM; in test [4] it was over 33.7 µM; in test [5], over 80.3 µM; in [6], 12.4 µM. The TGI is 58.1 µM in [7], 53.7 µM in test [8], over 100 µM in [9] and over 100 µM in test [10].
Consider `NCCN1C(=O)c2ccccc2C1(O)c1ccc(Cl)cc1` (stereo not given), for which the TGI in test [1] was determined as 30.5 µM; in test [2], 33.1 µM; in test [3], 30.9 µM; in [4], 31.7 µM; in test [5], 39 µM; in test [6] it was 30.8 µM. Moreover, the TGI in [7] amounted to 27.8 µM; in test [8], 97.6 µM; in test [9], 52.3 µM; in [10], 39.8 µM.
Turning to `Oc1ccccc1C=Nc1ccccc1N=Cc1ccccc1O.[Cu+2]`, the GI50 in test [1] is 3500 nM; in test [2], 15400 nM; in [3], 10800 nM; in [4], 4450 nM; in test [5] it was 4440 nM; in test [6], 5.81 µM. Further, the GI50 in test [7] is 7660 nM; in test [8], 5150 nM; in test [9] it was 8620 nM; in test [10], 14800 nM. Further, the TGI in test [1] is 15 µM; in test [2] it was 92 µM; in test [3] it was 24.7 µM; in test [4], 16.9 µM; in test [5], over 100 µM; in [6], 19.5 µM. Besides, the TGI in [7] is 20.8 µM; in [8], 19.3 µM; in test [9] it was 23.6 µM; in test [10] it was 36 µM.
